# From paper PMC6100288 (Molecules : A Journal of Synthetic Chemistry and Natural …, 2018)
# Biological target: T1, recombinant human PTP1B (Homo sapiens, UniProt P18031)
# T1 construct: purchased Enzo Life Sciences Inc. BML-SE332-0050
# T1 sequence (P18031 1-322 limits assumed): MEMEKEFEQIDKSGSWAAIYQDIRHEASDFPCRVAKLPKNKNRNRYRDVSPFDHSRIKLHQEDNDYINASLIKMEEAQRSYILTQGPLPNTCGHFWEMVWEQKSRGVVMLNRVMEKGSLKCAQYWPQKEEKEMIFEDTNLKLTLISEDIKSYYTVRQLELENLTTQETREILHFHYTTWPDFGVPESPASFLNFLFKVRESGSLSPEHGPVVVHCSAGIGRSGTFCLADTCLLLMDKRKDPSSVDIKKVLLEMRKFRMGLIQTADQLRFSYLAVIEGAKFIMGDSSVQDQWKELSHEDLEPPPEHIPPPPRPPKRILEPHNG
# Assay: Microplate-based PTP1B inhibition assay (pNPP substrate)
# Type: biochemical
# Conditions: n = 3; IC50 ± standard error; pH 7, 25 °C, 0.5 mM pNPP
# Description: p-Nitrophenyl phosphate (pNPP), dimethyl sulfoxide (DMSO), sodium phosphate monobasic dihydrate, sodium phosphate dibasic, sodium hydroxide, sodium azide, tris-(hydroxymethyl)-aminomethane (Tris), bis-(2-hydroxyethyl)-imino-tris-(hydroxymethylmethane) (Bis-Tris), N,N,N′,N′-ethylenediaminetetraacetate (EDTA), dithiothreitol (DTT), methanol-d4, and HPLC grade acetonitrile were purchased from Sigma-Aldrich (St. Louis, MO, USA), recombinant human PTP1B (BML-SE332-0050, EC 3.1.3.48) was purchased from Enzo Life Sciences Inc. (Farmingdale, NY, USA), and formic acid was purchased from Merck (Darmstadt, Germany). Water was purified by deionization and filtration through a 0.22 μm membrane (Millipore, Billerica, MA, USA).
# PTP1B inhibition assaying of the defatted extract, fraction F1 (from preparative HPLC: see Section 3.5) and microfractions (obtained as described below in Section 3.4) were performed according to the microplate-based method previously described. In brief, all solutions were prepared in a buffer of 50 mM Tris and 50 mM Bis-Tris containing 100 mM NaCL and adjusted to pH 7. […] The microplate was incubated for 10 min at 25 °C, and the reaction was started by addition of 0.001 μg/μL PTP1B stock solution (50 μL) in phosphate buffer (to give a final concentration of 0.05 µg PTP1B per well). […] For each microplate, blank samples (negative controls) containing buffer, enzyme, EDTA, DTT, and pNPP were measured in triplicate, and for the dilution series, RK682 was included as a reference inhibitory compound (i.e., positive control). The percentage inhibition of PTP1B was calculated according to the following equation: % inhibition=(1−SLOPEsample/SLOPEblank)×100
# (§1) The high-resolution PTP1B biochromatograms (high-resolution PTP1B inhibition profiles) were constructed by plotting the inhibition values against the chromatographic retention time. Dose-response curves and IC50 values for dilution series of the crude extract and pure compounds were obtained using GraFit software, version 5.0.11 (Erithacus Software Limited, West Sussex, UK). For PTP1B IC50 values, the crude extract and isolated compounds were assessed by using the standard assay conditions described above. Nine dilutions were assessed in triplicates and percentage inhibition calculated as mean ± standard deviation in Microsoft Excel according to the above equation. The results were imported and used for assessing dose-response curves and IC50 values in GraFit software, version 5.0.11 (Erithacus Software Limited). Data were fitted to the equation f(x)=min+max−min/1+(x/IC50)^slope where min is the background, max–min is the y-range, x is the concentration, and slope is the Hill slope.
row,IC50 [nM],SMILES
1,2870 ± 400,"CC1(C)CC[C@]2(C(=O)O)CC[C@]3(C)C(=CC[C@@H]4[C@@]5(C)CC[C@@H](O)C(C)(C)[C@@H]5[C@H](O)C[C@]43C)[C@@H]2C1 [Compound 14, 3-epi-sumaresinolic acid]"
2,1840 ± 300,"CC1(C)CC[C@]2(C(=O)O)CC[C@]3(C)C(=CC[C@@H]4[C@@]5(C)CC[C@H](O)C(C)(C)[C@@H]5[C@H](O)C[C@]43C)[C@@H]2C1 [Compound 15, Sumaresinolic acid]"
3,460 ± 70,"CC1(C)CC[C@]2(C(=O)O)CC[C@]3(C)C(=CC[C@@H]4[C@@]5(C)C[C@@H](O)[C@H](OC(=O)/C=C\c6ccc(O)cc6)C(C)(C)[C@@H]5CC[C@]43C)[C@@H]2C1 [Compound 16, 3-O-cis-p-coumaroyl-maslinic acid]"
4,1080 ± 300,"CC1(C)CC[C@]2(C(=O)O)CC[C@]3(C)C(=CC[C@@H]4[C@@]5(C)C[C@@H](O)[C@H](OC(=O)/C=C/c6ccc(O)cc6)C(C)(C)[C@@H]5CC[C@]43C)[C@@H]2C1 [Compound 17, 3-O-trans-p-coumaroyl-maslinic acid]"
5,1600 ± 500,"CC1C(C(=O)O)CCC2(C)CCC3(C)C(=CCC4C5(C)CC(O)C(OC(=O)C=Cc6ccc(O)cc6)C(C)(C)C5CCC43C)C12 (stereo not drawn) [Compound 18, 3-O-trans-p-coumaroyl-2α-hydroxydulcioic acid]"

row,SMILES,IC50 [nM]
1,"CC1(C)CC[C@]2(C(=O)O)CC[C@]3(C)C(=CC[C@@H]4[C@@]5(C)C[C@@H](O)[C@H](O)C(C)(C)[C@@H]5CC[C@]43C)[C@@H]2C1 [Compound 13, Maslinic acid]",3210 ± 800

# Biological target: T1, recombinant human PTP1B
# Assay: High-resolution PTP1B inhibition profiling (biochromatogram of HPLC microfractions)
# Type: biochemical
# Conditions: HPLC microfractions of crude ethyl acetate extract, Figure 1; result in words
# Method: PTP1B inhibition assaying of the defatted extract, fraction F1 (from preparative HPLC: see Section 3.5) and microfractions (obtained as described below in Section 3.4) were performed according to the microplate-based method previously described. In brief, all solutions were prepared in a buffer of 50 mM Tris and 50 mM Bis-Tris containing 100 mM NaCL and adjusted to pH 7. To each well containing microfractions or dilution series of pure compounds were added 18 µL of DMSO and 52 µL of 3.4 mM EDTA in Bis-Tris buffer (to give final well concentrations of 10% DMSO and 1 mM EDTA) as well as 60 µL of a Bis-Tris buffer solution containing 1.5 mM pNPP and 6 mM DTT in phosphate buffer (to give final well concentrations of 0.5 mM pNPP and 2 mM DTT). The microplate was incubated for 10 min at 25 °C, and the reaction was started by addition of 0.001 μg/μL PTP1B stock solution (50 μL) in phosphate buffer (to give a final concentration of 0.05 µg PTP1B per well). The reaction was monitored at 405 nm every 30 s for 10 min to yield the enzyme activity (expressed as cleavage rate AU/s) by using a Thermo Scientific Multiskan FC microplate photometer (Thermo Scientific, Waltham, MA, USA). For each microplate, blank samples (negative controls) containing buffer, enzyme, EDTA, DTT, and pNPP were measured in triplicate, and for the dilution series, RK682 was included as a reference inhibitory compound (i.e., positive control). The percentage inhibition of PTP1B was calculated according to the following equation: % inhibition=(1−SLOPEsample/SLOPEblank)×100
# as §1, with “slope. Results are reported as IC50 values ± standard error.” for “slope.”
# Microfractionation of the extract of M. albicans for high-resolution PTP1B inhibition profiling was conducted using an Agilent 1200 system (Santa Clara, CA, USA—HPLC system 1) comprising a G1311A quaternary pump, a G1322A degasser, a G1316A thermostatted column compartment, a G1315C photodiode array detector, a G1367C high-performance autosampler, and a G1364C fraction collector, controlled by Agilent ChemStation version B.03.02 software. Separations were performed by using a reversed-phase Phenomenex Luna C18(2) column (150 mm × 4.6 mm i.d., 3 μm particle size, 100 Å pore size) (Phenomenex, Torrance, CA, USA). A binary elution system of water: acetonitrile (95:5, solvent A) and acetonitrile: water (95:5, solvent B), both acidified with 0.1% formic acid, was used with a flow rate of 0.8 mL/min. […]
row,PTP1B inhibitory activity in high-resolution inhibition profile of crude extract,SMILES
1,PTP1B inhibitors,"O=C(/C=C/c1ccc(O)c(O)c1)O[C@@H]1O[C@H](COC(=O)c2cc(O)c(O)c(O)c2)[C@@H](OC(=O)c2cc(O)c(O)c(O)c2)[C@H](O)[C@H]1O [Compound 2, 1-O-(E)-caffeoyl-4,6-di-O-galloyl-β-D-glucopyranose]"
2,PTP1B inhibitors,"C[C@@H]1O[C@@H](Oc2c(-c3cc(O)c(O)c(O)c3)oc3cc(O)cc(O)c3c2=O)[C@H](O)[C@H](O)[C@H]1O [Compound 3, myricetin 3-O-α-L-rhamnopyranoside]"
3,PTP1B inhibitors,"C[C@@H]1O[C@@H](Oc2c(-c3ccc(O)c(O)c3)oc3cc(O)cc(O)c3c2=O)[C@H](OC(=O)c2cc(O)c(O)c(O)c2)[C@H](O)[C@H]1O [Compound 5, quercetin 3-O-(2″-galloyl)-α-L-rhamnopyranoside]"
4,PTP1B inhibitors,"COc1c(O)cc(-c2oc3cc(O)cc(O)c3c(=O)c2O[C@@H]2O[C@@H](C)[C@H](O)[C@@H](O)[C@H]2O)cc1O [Compound 6, mearnsetin 3-O-α-L-rhamnopyranoside]"
5,PTP1B inhibitors,"O=c1c(O[C@@H]2OC[C@H](O)[C@H](O)[C@H]2O)c(-c2ccc(O)cc2)oc2cc(O)cc(O)c12 [Compound 8, kaempferol 3-O-α-L-arabinopyranoside]"

# Test system: PTP1B
# Assay: not given
# Parameters: method as in PMID 23704520
# Conditions: read-out: previously reported IC50-value (PTP1B); cited from earlier work
row,SMILES,IC50 [nM]
1,"CC1(C)CC[C@]2(C(=O)O)CC[C@]3(C)C(=CC[C@@H]4[C@@]5(C)C[C@@H](O)[C@H](O)C(C)(C)[C@@H]5CC[C@]43C)[C@@H]2C1 [Compound 13, Maslinic acid]",5930
